The text below walks through data of US10556905B2, “Processes for preparing a diazabicyclooctane compound” (priority 2012, dated 2020).

What is called MIC is the least concentration at which growth counts as inhibited.

Values after ≈ are worked out from the molar mass of the structure shown.

Assay [1] concerns extensively drug-resistant tuberculosis (XDR-TB). The assay is described as follows: Anti-tubercle bacillus activity, liquid medium dilution MIC. The class given is cell-based. The following applies: for MIC: Bacillus, 168 h, read-out: antibacterial activity (MIC) of β-lactam agent alone.
The subject of assay [2] is multi-drug resistant tuberculosis (MDR-TB). The assay is described as above. The format is cell-based. As to conditions: for MIC: Bacillus, 168 h, read-out: antibacterial activity (MIC) of β-lactam agent alone.

For `NCCONC(=O)[C@@H]1CC[C@@H]2CN1C(=O)N2OS(=O)(=O)O` [Example 59, (2S,5R)—N-(2-Aminoethoxy)-7-oxo-6-(sulfooxy)-1,6-diazabicyclo[3.2.1]octane-2-carboxamide], the “antibacterial activity (MIC) of ABPC in combinatorial use” value in assay [1] (ABPC + 4 μg/mL compound, XDR-TB) came out at 16 µg/mL; in assay [2] (ABPC + 4 μg/mL compound, MDR-TB), 32 µg/mL. Further, the “antibacterial activity (MIC) of AMPC in combinatorial use” value stood at 16 µg/mL in assay [1] (AMPC + 4 μg/mL compound, XDR-TB) and 64 µg/mL in assay [2] (AMPC + 4 μg/mL compound, MDR-TB). Moreover, the “antibacterial activity (MIC) of BIPM in combinatorial use” value in assay [1] (BIPM + 4 μg/mL compound, XDR-TB) stood at 1 µg/mL; in assay [2] (BIPM + 4 μg/mL compound, MDR-TB), 4 µg/mL. For the same molecule, the “antibacterial activity (MIC) of MEPM in combinatorial use” value in assay [1] (MEPM + 4 μg/mL compound, XDR-TB) was 1 µg/mL; in assay [2] (MEPM + 4 μg/mL compound, MDR-TB) it was 8 µg/mL. Also, the “antibacterial activity (MIC) of TBPM in combinatorial use” value in assay [1] (TBPM + 4 μg/mL compound, XDR-TB) was 0.5 µg/mL; in assay [2] (TBPM + 4 μg/mL compound, MDR-TB), 2 µg/mL.
Take `C[C@@H](O)[C@H]1C(=O)N2C(C(=O)O)=C(SC3CN(C4=NCCS4)C3)[C@H](C)[C@H]12` [TBPM, tebipenem, reference compound]: the MIC in assay [1] was determined as 1 µg/mL (≈ 2.61 µM); in assay [2], 4 µg/mL (≈ 10.4 µM).
With `CC1(C)S[C@@H]2[C@H](NC(=O)[C@H](N)c3ccccc3)C(=O)N2[C@H]1C(=O)O` [ABPC, ampicillin, reference compound], the values for the MIC in assay [1] and in assay [2] were 32 µg/mL (≈ 91.6 µM) and 128 µg/mL (≈ 366 µM), respectively.
As for `C[C@@H](O)[C@H]1C(=O)N2C(C(=O)O)=C(S[C@@H]3CN[C@H](C(=O)N(C)C)C3)[C@H](C)[C@H]12` [MEPM, meropenem, reference compound], the MIC in assay [1] came to 4 µg/mL (≈ 10.4 µM); in assay [2], 16 µg/mL (≈ 41.7 µM).
As for `CC1(C)S[C@@H]2[C@H](NC(=O)[C@H](N)c3ccc(O)cc3)C(=O)N2[C@H]1C(=O)O` [AMPC, amoxicillin, reference compound], the figures for the minimum inhibitory concentration (MIC) in assay [1] and in assay [2] were 64 µg/mL (≈ 175 µM) and 128 µg/mL (≈ 350 µM), respectively.
In the case of `C[C@@H](O)[C@H]1C(=O)N2C(C(=O)[O-])=C(SC3Cn4cnc[n+]4C3)[C@H](C)[C@H]12` (some centres unmarked) [BIPM, biapenem, reference compound], the MIC in assay [1] is 2 µg/mL (≈ 5.71 µM); in assay [2], 16 µg/mL (≈ 45.7 µM).
